Measured values published in ChEMBL document CHEMBL1201862, “PubChem BioAssay data set” (2004).
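The compound was tested at five concentrations on cells cultured in 96-well plates, with a 48-hour exposure period. The concentration for 50% growth inhibition is given as GI50.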 The source made the active and inactive calls. No stated cut-off is given here; in the data, active = GI50 up to about 1.1 µM and inactive = higher.

Experiments:
Assay in all cases: NCI-60 cell line screen, 48 h
[1] = system: Malme-3M
[2] = system: A549
[3] = system: MCF7
[4] = system: MOLT-4
[5] = system: Hs-578T
[6] = system: OVCAR-8
[7] = system: NCI/ADR-RES
[8] = system: HCT-15
[9] = system: SK-MEL-28
[10] = system: DU-145
[11] = system: 786-0
[12] = system: CAKI-1
[13] = system: A498
[14] = system: RXF 393
[15] = system: HOP-92
[16] = system: SK-MEL-2
[17] = system: SN12C
[18] = system: COLO 205
[19] = system: KM12
[20] = system: ACHN

Row | SMILES | GI50 [1] | GI50 [2] | GI50 [3] | GI50 [4] | GI50 [5] | GI50 [6] | GI50 [7] | GI50 [8] | GI50 [9] | GI50 [10] | GI50 [11] | GI50 [12] | GI50 [13] | GI50 [14] | GI50 [15] | GI50 [16] | GI50 [17] | GI50 [18] | GI50 [19] | GI50 [20]
1 | COc1cc(C2c3cc4c(cc3OC(NNc3ccccc3)C2C)OCO4)cc(OC)c1OC (stereo not drawn) | 0.935 µM (active) | 1.6 µM (inactive) | 0.714 µM (active) | 1.09 µM (active) | 2.96 µM (inactive) | 2.81 µM (inactive) | 0.597 µM (active) | 0.417 µM | 1.57 µM (inactive) | 2.11 µM (inactive) | 1.1 µM (active) | 0.982 µM (active) | 2.22 µM (inactive) | 1.54 µM (inactive) | 6.43 µM (inactive) | 1.23 µM (inactive) | 2.99 µM (inactive) | 1.46 µM (inactive) | 0.395 µM (active) | 0.631 µM (active)
2 | CCOC(=O)c1c(Br)c(-c2ccc(OC)cc2)c(Br)n1C | 12.1 µM (inactive) | 21.3 µM (inactive) | 8.39 µM (inactive) | 8.57 µM (inactive) | 11.6 µM (inactive) | 27.1 µM (inactive) | 5.18 µM (inactive) | 8.61 µM | 37.6 µM (inactive) | 32.2 µM (inactive) | 21.6 µM (inactive) | > 10 µM (inactive) | 14.6 µM (inactive) | 17.3 µM (inactive) | 8.17 µM (inactive) | 19.2 µM (inactive) | 12.9 µM (inactive) | 27.6 µM (inactive) | 11.4 µM (inactive) | 29.6 µM (inactive)
3 | CCOP(=O)(OCC)c1c(C(=O)OC)cc(=O)[nH]c1-c1ccc(C)cc1 | 6.1 µM (inactive) | 15.2 µM (inactive) | 13.4 µM (inactive) | 4.57 µM (inactive) | 17.9 µM (inactive) | 17.7 µM (inactive) | 19.5 µM (inactive) | 9.73 µM | 18.5 µM (inactive) | 12.9 µM (inactive) | 20.6 µM (inactive) | 5.46 µM (inactive) | 22 µM (inactive) | 12.5 µM (inactive) | 2.75 µM (inactive) | 15.7 µM (inactive) | 22.4 µM (inactive) | 6.5 µM (inactive) | 16 µM (inactive) | 3.17 µM (inactive)
4 | COc1ccc(C(=O)/C=C/c2ccc(Oc3cc(C(=O)/C=C/c4ccc(O)cc4)c(O)cc3OC)cc2)c(O)c1 [RHUSCHALCONE I] | 17.2 µM (inactive) | 8.71 µM (inactive) | 4.41 µM (inactive) | 2.52 µM (inactive) | 16.7 µM (inactive) | 3.45 µM (inactive) | 3.24 µM (inactive) | 2.43 µM | 2.74 µM (inactive) | 5.96 µM (inactive) | 2.51 µM (inactive) | 4.1 µM (inactive) | 1.67 µM (inactive) | 2.56 µM (inactive) | 13.9 µM (inactive) | 8.57 µM (inactive) | 3.74 µM (inactive) | 4.34 µM (inactive) | 2.65 µM (inactive) | 2.9 µM (inactive)
5 | Cc1cc(=O)oc2cc3oc(N(C)c4ccccc4)nc(=O)c3cc12 | > 100 µM (inactive) | > 100 µM (inactive) | > 100 µM (inactive) | > 100 µM (inactive) | 46.7 µM (inactive) | 42.4 µM (inactive) | > 100 µM (inactive) | > 100 µM | > 100 µM (inactive) | > 100 µM (inactive) | > 100 µM (inactive) | > 100 µM (inactive) | > 100 µM (inactive) | > 100 µM (inactive) | 22.7 µM (inactive) | > 100 µM (inactive) | > 100 µM (inactive) | > 100 µM (inactive) | > 100 µM (inactive) | > 100 µM (inactive)
6 | COC(=O)c1c(OC(C)=O)ccc2c1c1cc3ccccc3c(OC(C)=O)c1n2C | 14.4 µM (inactive) | 19.9 µM (inactive) | 9.33 µM (inactive) | 5.75 µM (inactive) | 4.43 µM (inactive) | 14.2 µM (inactive) | 34.8 µM (inactive) | 22.7 µM | 84.5 µM (inactive) | 9.86 µM (inactive) | 11 µM (inactive) | 11.8 µM (inactive) | 13.7 µM (inactive) | 24.8 µM (inactive) | 10.3 µM (inactive) | 29.7 µM (inactive) | 40.6 µM (inactive) | 21.8 µM (inactive) | 34.6 µM (inactive) | 8.09 µM (inactive)
7 | COC(=O)[C@H](Cc1c[nH]c2ccccc12)NC(=O)c1ccc(CNC(=O)/C=C/c2cccc(Oc3ccccc3)c2)cc1 | 22.8 µM (inactive) | 92.9 µM (inactive) | > 100 µM (inactive) | 9.06 µM (inactive) | 34.7 µM (inactive) | > 100 µM (inactive) | > 100 µM (inactive) | 81.7 µM | 29.2 µM (inactive) | > 100 µM (inactive) | > 100 µM (inactive) | > 100 µM (inactive) | > 100 µM (inactive) | 7.73 µM (inactive) | 20.2 µM (inactive) | 18.9 µM (inactive) | > 100 µM (inactive) | > 100 µM (inactive) | > 100 µM (inactive) | > 100 µM (inactive)
8 | COc1ccc(CNc2nc(NCc3ccc(OC)cc3)nc(Nc3ccccc3)n2)cc1 | 6.35 µM (inactive) | 9.86 µM (inactive) | 5.18 µM (inactive) | 3.01 µM (inactive) | 30.1 µM (inactive) | 20.3 µM (inactive) | 9.14 µM (inactive) | 3.39 µM | 4.72 µM (inactive) | 37.7 µM (inactive) | 49.7 µM (inactive) | 3.35 µM (inactive) | 39.1 µM (inactive) | > 100 µM (inactive) | > 100 µM (inactive) | > 100 µM (inactive) | 46 µM (inactive) | 4.82 µM (inactive) | 3.37 µM (inactive) | 13.1 µM (inactive)
9 | Cc1c(C#N)c2nnn(-c3ccccc3)c(=O)n2c1-c1ccccc1 | 26.5 µM (inactive) | 1.29 µM (inactive) | 2.39 µM (inactive) | 1.58 µM (inactive) | 4.51 µM (inactive) | 7.19 µM (inactive) | 1.12 µM (active) | 1.85 µM |  | 1.73 µM (inactive) | 1.67 µM (inactive) | 2.42 µM (inactive) | 2.1 µM (inactive) | 2.48 µM (inactive) | 31.3 µM (inactive) | 4.53 µM (inactive) | 4.65 µM (inactive) | 0.49 µM (active) | 0.839 µM (active) | 8.97 µM (inactive)
10 | C[C@@H]1C(O)CC[C@H](C)C12CC=CC2=O (stereo partly drawn) | > 100 µM (inactive) | > 100 µM (inactive) | > 100 µM (inactive) | > 100 µM (inactive) | > 100 µM (inactive) |  | > 100 µM (inactive) | > 100 µM | > 100 µM (inactive) | > 100 µM (inactive) | > 100 µM (inactive) | > 100 µM (inactive) | > 100 µM (inactive) | > 100 µM (inactive) | > 100 µM (inactive) | > 100 µM (inactive) | > 100 µM (inactive) | > 100 µM (inactive) |  | > 100 µM (inactive)
11 | CC#Cc1ccc(-c2ccccc2)s1 |  | > 100 µM (inactive) | > 100 µM (inactive) | > 100 µM (inactive) | > 100 µM (inactive) | > 100 µM (inactive) | > 100 µM (inactive) | > 100 µM | > 100 µM (inactive) | > 100 µM (inactive) | > 100 µM (inactive) | > 100 µM (inactive) | > 100 µM (inactive) | > 100 µM (inactive) | > 100 µM (inactive) | > 100 µM (inactive) | > 100 µM (inactive) | > 100 µM (inactive) | > 100 µM (inactive) | > 100 µM (inactive)
12 | COc1ccc(CC2NC(=O)/C=C/CC(C(C)C3OC3c3ccccc3)OC(=O)C(CC(C)C)OC(=O)C(C)CNC2=O)cc1Cl (stereo not drawn) |  | < 1e-05 µM (active) | 1.34e-05 µM (active) | 3.4e-05 µM (active) | 1.78e-05 µM (active) | 2.32e-05 µM (active) | 4.81e-05 µM (active) | 1.06e-05 µM | 2.43e-05 µM (active) | 1.21e-05 µM (active) | < 1e-05 µM (active) | 1.01e-05 µM (active) | < 1e-05 µM (active) | < 1e-05 µM (active) | 0.000205 µM (active) | 0.001 µM (active) | 2.38e-05 µM (active) | < 1e-05 µM (active) | < 1e-05 µM (active) | 2.81e-05 µM (active)
13 | CCN(CC)CCO/N=C1/C=C2CCC3C(CC[C@@]4(C)C3CC[C@]4(C)O)[C@@]2(C)CC1 (stereo partly drawn) | 3.64 µM (inactive) | 7.36 µM (inactive) | 3.95 µM (inactive) | 1.91 µM (inactive) | 5.12 µM (inactive) | 5.21 µM (inactive) | 1.96 µM (inactive) | 2.29 µM |  | 6.37 µM (inactive) | 3.69 µM (inactive) | 4.52 µM (inactive) | 0.195 µM (active) | 15.5 µM (inactive) | 4.9 µM (inactive) | 11.2 µM (inactive) | 4.15 µM (inactive) | 4.16 µM (inactive) | 5.43 µM (inactive) | 5.87 µM (inactive)
14 | O=C(O)c1ccc(Nc2nc3cc(C(F)(F)F)ccc3n3cccc23)cc1 | 84.7 µM (inactive) | 30.5 µM (inactive) | 35.6 µM (inactive) | 25.1 µM (inactive) | 44.4 µM (inactive) | 49.5 µM (inactive) | 61.9 µM (inactive) | 23.3 µM | 46.2 µM (inactive) | 49.2 µM (inactive) | 22.7 µM (inactive) | 47.3 µM (inactive) | 42 µM (inactive) | 17.1 µM (inactive) | 64.6 µM (inactive) | 31.3 µM (inactive) |  | 22.5 µM (inactive) | 19.8 µM (inactive) | 24.9 µM (inactive)
